# Data from ChEMBL document CHEMBL1147486 (Bioorg Med Chem Lett, 2004).
# Experiments:
# Rattus norvegicus [1] = species on record: Rattus norvegicus; assay: In vitro ability to inhibit the peroxidation of rat hepatic microsomal lipids; assay type: functional; settings: Liver
# Mus musculus = assay: Antiinflammatory activity, administered ip at 150 uM/kg dose was determined against carrageenan-induced mice paw edema model; assay type: functional; settings: at 150 µmol/kg
# Rattus norvegicus [2] = assay: Mortality caused by the compound in rats after administration at 200 uM/kg for 4 days; assay type: functional
# Rattus norvegicus [3] = assay: Ulcerogenic activity administered once daily at 200 uM/kg for 4 days was determined as no of animals showing perforating ulcers; assay type: functional
# Rattus norvegicus [4] = assay: Body weight change after once daily administration at 200 uM/kg for 4 days in rats was determined; assay type: functional
# Rattus norvegicus [5] = species on record: Rattus norvegicus; assay: In vitro ability to inhibit the peroxidation of rat hepatic microsomal lipids at 1 mM concentration; assay type: functional; settings: Liver
# Rattus norvegicus [6] = assay: Mortality caused by the compound in rats after administration at 1200 uM/kg for 4 days; assay type: functional
# Rattus norvegicus [7] = assay: Body weight change after once daily administration for 4 days in rats was determined; assay type: functional
# Rattus norvegicus [8] = assay: Ulcerogenic activity administered once daily at 1200 uM/kg for 4 days was determined as no of animals showing perforating ulcers; assay type: functional
# Rattus norvegicus [9] = assay: Ulcerogenic activity administered once daily at 240 uM/kg for 4 days was determined as no of animals showing perforating ulcers; assay type: functional
# Rattus norvegicus [10] = assay: Hypolipidemic action at 500 uM/kg was determined as reduction in low density lipoprotein in rat plasma; assay type: functional
# Rattus norvegicus [11] = assay: Hypolipidemic action at 500 uM/kg was determined as reduction in triglycerides in rat plasma; assay type: functional
# Rattus norvegicus [12] = assay: Body weight change after once daily administration at 240 uM/kg for 4 days in rats was determined; assay type: functional
# Rattus norvegicus [13] = assay: Hypolipidemic action at 500 uM/kg was determined as reduction in total cholesterol in rat plasma
# Rattus norvegicus [14] = assay: Mortality caused by the compound in rats after administration at 240 uM/kg for 4 days; assay type: functional
# Rattus norvegicus [15] = assay: Hypolipidemic action at 300 uM/kg was determined as reduction in total cholesterol in rat plasma; assay type: functional
# Rattus norvegicus [16] = assay: Body weight change after once daily administration at 1600 uM/kg for 4 days in rats was determined; assay type: functional
# Rattus norvegicus [17] = assay: Mortality caused by the compound in rats after administration at 1600 uM/kg for 4 days; assay type: functional
# Rattus norvegicus [18] = assay: Hypolipidemic action at 300 uM/kg was determined as reduction in low density lipoprotein in rat plasma; assay type: functional
# Rattus norvegicus [19] = assay: Hypolipidemic action at 300 uM/kg was determined as reduction in triglycerides in rat plasma; assay type: functional
# Rattus norvegicus [20] = assay: Ulcerogenic activity administered once daily at 1600 uM/kg for 4 days was determined as no of animals showing perforating ulcers; assay type: functional
# Rattus norvegicus [21] = assay: Mortality caused by the compound in rats after administration at 84 uM/kg for 4 days; assay type: functional
# Rattus norvegicus [22] = assay: Ulcerogenic activity administered once daily for 4 days at 84 uM/kg was determined as no of animals showing perforating ulcers; assay type: functional
# Rattus norvegicus [23] = assay: Body weight change after once daily administration for 4 days at 84 uM/kg in rats was determined; assay type: functional
# Rattus norvegicus [24] = assay: Hypolipidemic action at 250 uM/kg was determined as reduction in total cholesterol in rat plasma; assay type: functional
# Rattus norvegicus [25] = assay: Hypolipidemic action at 250 uM/kg was determined as reduction in low density lipoprotein in rat plasma; assay type: functional
# Rattus norvegicus [26] = assay: Hypolipidemic action at 250 uM/kg was determined as reduction in triglycerides in rat plasma; assay type: functional
# Rattus norvegicus [27] = assay: Mortality caused by the compound in rats after administration at 1350 uM/kg for 4 days; assay type: functional
# Rattus norvegicus [28] = assay: Ulcerogenic activity administered once daily at 1350 uM/kg for 4 days was determined as no of animals showing perforating ulcers; assay type: functional
# Rattus norvegicus [29] = assay: Body weight change after once daily administration at 84 uM/kg for 4 days in rats was determined; assay type: functional
# Rattus norvegicus [30] = assay: Ulcerogenic activity administered once daily at 84 uM/kg for 4 days was determined as no of animals showing perforating ulcers; assay type: functional
# Rattus norvegicus [31] = assay: Ulcerogenic activity administered once daily at 760 uM/kg for 4 days was determined as no of animals showing perforating ulcers; assay type: functional
# Rattus norvegicus [32] = assay: Body weight change after once daily administration at 760 uM/kg for 4 days in rats was determined; assay type: functional
# Rattus norvegicus [33] = assay: Mortality caused by the compound in rats after administration at 760 uM/kg for 4 days; assay type: functional
SMILES,Edema inhibition (Mus musculus),Paw weight increase (Mus musculus),Decrease (Rattus norvegicus [10]),Decrease (Rattus norvegicus [11]),Decrease (Rattus norvegicus [13]),also measured
CCOC(=O)[C@H](CS)NC(=O)C(C)c1cccc(C(=O)c2ccccc2)c1 (stereo not given in full),29%,48%,,,,IC50 (Rattus norvegicus [1]): 650 µM; Mortality (Rattus norvegicus [2]): 0%; Ulcerogenic activity (Rattus norvegicus [3]): 0%; Body weight change (Rattus norvegicus [4]): 0.3 g (100g of body weight)-1; inhibition (Rattus norvegicus [5]): 100%
CCOC(=O)[C@@H](N)CS.O=C([O-])Cc1ccccc1Nc1c(Cl)cccc1Cl.[Na+],27.7%,28.2%,,,,
O=C(O)c1ccccc1Nc1cccc(C(F)(F)F)c1 [FLUFENAMIC ACID],19%,55.4%,,,,Mortality (Rattus norvegicus [6]): 50%; Body weight change (Rattus norvegicus [7]): -9.2 g (100g of body weight)-1; Ulcerogenic activity (Rattus norvegicus [8]): 50%
CCOC(=O)[C@H](CS)NC(=O)Cc1ccccc1Nc1c(Cl)cccc1Cl,59.3%,11.8%,92.6%,31.6%,54.7%,IC50 (Rattus norvegicus [1]): 27 µM; Ulcerogenic activity (Rattus norvegicus [9]): 0%; Body weight change (Rattus norvegicus [12]): 3.1 g (100g of body weight)-1; inhibition (Rattus norvegicus [5]): 100%; Mortality (Rattus norvegicus [14]): 0%
CC(C(=O)O)c1cccc(C(=O)c2ccccc2)c1 (stereo not given) [KETOPROFEN],,35.9%,,,,Mortality (Rattus norvegicus [2]): 50%; Ulcerogenic activity (Rattus norvegicus [3]): 83%; Body weight change (Rattus norvegicus [4]): -18.9 g (100g of body weight)-1
CCOC(=O)[C@@H](N)CS.O=C(O)c1ccccc1Nc1cccc(C(F)(F)F)c1,9%,61.9%,,,,
CCOC(=O)[C@@H](N)CS.COc1ccc2cc(C(C)C(=O)O)ccc2c1 (stereo not given),38.1%,30.1%,,,,
CCOC(=O)[C@@H](N)CS,24.9%,29.2%,,,,
CC(C)Cc1ccc(C(C)C(=O)O)cc1 (stereo not given) [IBUPROFEN],35.6%,31.7%,,,,Decrease (Rattus norvegicus [15]): 38.2%; Body weight change (Rattus norvegicus [16]): -12.7 g (100g of body weight)-1; Mortality (Rattus norvegicus [17]): 50%; Decrease (Rattus norvegicus [18]): 31.6%; Decrease (Rattus norvegicus [19]): 41.6%; Ulcerogenic activity (Rattus norvegicus [20]): 88%
CCOC(=O)[C@@H](N)CS.COc1ccc2c(c1)c(CC(=O)O)c(C)n2C(=O)c1ccc(Cl)cc1,32.8%,25.8%,,,,
CCOC(=O)[C@H](CS)NC(=O)Cc1c(C)n(C(=O)c2ccc(Cl)cc2)c2ccc(OC)cc12,63.3%,14.1%,60.5%,19.8%,37%,IC50 (Rattus norvegicus [1]): 51 µM; Mortality (Rattus norvegicus [21]): 0%; Ulcerogenic activity (Rattus norvegicus [22]): 0%; Body weight change (Rattus norvegicus [23]): 3.4 g (100g of body weight)-1; inhibition (Rattus norvegicus [5]): 100%
CCOC(=O)[C@H](CS)NC(=O)C(C)c1ccc(CC(C)C)cc1 (stereo not given in full),61.2%,19.1%,,,,IC50 (Rattus norvegicus [1]): 38 µM; Decrease (Rattus norvegicus [24]): 48.1%; Mortality (Rattus norvegicus [17]): 0%; Body weight change (Rattus norvegicus [7]): 1 g (100g of body weight)-1; Decrease (Rattus norvegicus [25]): 68.7%; inhibition (Rattus norvegicus [5]): 100%; Ulcerogenic activity (Rattus norvegicus [20]): 0%; Decrease (Rattus norvegicus [26]): 27.5%
CCOC(=O)[C@H](CS)NC(=O)C(C)c1ccc2cc(OC)ccc2c1 (stereo not given in full),37.1%,35.6%,46.8%,29.6%,33.8%,IC50 (Rattus norvegicus [1]): 28 µM; Mortality (Rattus norvegicus [27]): 0%; Ulcerogenic activity (Rattus norvegicus [28]): 0%; Body weight change (Rattus norvegicus [7]): 9.2 g (100g of body weight)-1; inhibition (Rattus norvegicus [5]): 100%
COc1ccc2cc([C@H](C)C(=O)O)ccc2c1 [NAPROXEN],11%,50.4%,43.5%,25.5%,53%,Mortality (Rattus norvegicus [27]): 50%; Ulcerogenic activity (Rattus norvegicus [28]): 100%; Body weight change (Rattus norvegicus [7]): -15.8 g (100g of body weight)-1
O=C([O-])Cc1ccccc1Nc1c(Cl)cccc1Cl.[Na+] [DICLOFENAC SODIUM],37.1%,24.5%,86.3%,96.1%,87.4%,Ulcerogenic activity (Rattus norvegicus [9]): 75%
COc1ccc2c(c1)c(CC(=O)O)c(C)n2C(=O)c1ccc(Cl)cc1 [INDOMETHACIN],41.6%,22.5%,72.2%,78.6%,74.4%,Body weight change (Rattus norvegicus [29]): -13 g (100g of body weight)-1; Mortality (Rattus norvegicus [21]): 50%; Ulcerogenic activity (Rattus norvegicus [30]): 80%
CC(C(=O)O)c1cccc(C(=O)c2ccccc2)c1.CCOC(=O)[C@@H](N)CS (stereo not given),39%,41.6%,,,,
Cc1c(Cl)cccc1Nc1ccccc1C(=O)O [TOLFENAMIC ACID],24%,27.6%,,,,Ulcerogenic activity (Rattus norvegicus [31]): 50%; Body weight change (Rattus norvegicus [32]): -5.3 g (100g of body weight)-1; Mortality (Rattus norvegicus [33]): 50%
CCOC(=O)[C@@H](N)CS.Cc1c(Cl)cccc1Nc1ccccc1C(=O)O,25.9%,25.5%,,,,
